In US11324774B2, “Compositions of oral alkaline salts and metabolic acid inducers and uses thereof” (Augusta University Research Institute, Inc., priority 2018, dated 2022):

Test system: T-regulatory cells (FOXP3+ T-regs), TH17 cells
Assay: Circulating T-regulatory and TH17 cells in rats
Assay type: in vivo
Conditions: rats, 4 days in drinking water

SMILES: O=C([O-])CC(O)(CC(=O)[O-])C(=O)[O-].[Na+].[Na+].[Na+] [Na Citrate]
- circulating anti-inflammatory T cells (FOXP3+ T-regs): no effect
